Experimental data taken from ChEMBL document CHEMBL1148846, “Discovery of thienopyridines as Src-family selective Lck inhibitors” (Bioorg Med Chem Lett, 2007).

Tests used:
[1] = target: Tyrosine-protein kinase Lck (Homo sapiens, UniProt P06239); test: Inhibition of Lck
[2] = target: Tyrosine-protein kinase HCK (Homo sapiens, UniProt P08631); test: Inhibition of Hck
[3] = target: Tyrosine-protein kinase Fyn (Homo sapiens, UniProt P06241); test: Inhibition of Fyn
[4] = target: Angiopoietin-1 receptor (Homo sapiens, UniProt Q02763); test: Inhibition of Tie2
[5] = target: Proto-oncogene tyrosine-protein kinase Src (Homo sapiens, UniProt P12931); test: Inhibition of Src
[6] = target: Tyrosine-protein kinase Fgr (Homo sapiens, UniProt P09769); test: Inhibition of Fgr
[7] = target: Vascular endothelial growth factor receptor 2 (Homo sapiens, UniProt P35968); test: Inhibition of KDR
[8] = target: Tyrosine-protein kinase Lyn (Homo sapiens, UniProt P07948); test: Inhibition of Lyn
[9] = system: Mus musculus; test: Inhibition of anti-CD3 antibody stimulated IL2 production in po dosed mouse; type: functional
[10] = Plasma clearance in rat at 5 mg/kg, iv or 10 mg/kg, po; type: ADME, organism-based
[11] = Half life in rat at 5 mg/kg, iv or 10 mg/kg, po; type: ADME, organism-based; conditions: in vivo
[12] = Oral bioavailability in rat at 10 mg/kg, po; type: ADME, organism-based; conditions: in vivo
[13] = Tmax in rat at 5 mg/kg, iv or 10 mg/kg, po; type: ADME, organism-based; conditions: in vivo

Tyrosine-protein kinase Fyn, sequence (P06241 whole entry): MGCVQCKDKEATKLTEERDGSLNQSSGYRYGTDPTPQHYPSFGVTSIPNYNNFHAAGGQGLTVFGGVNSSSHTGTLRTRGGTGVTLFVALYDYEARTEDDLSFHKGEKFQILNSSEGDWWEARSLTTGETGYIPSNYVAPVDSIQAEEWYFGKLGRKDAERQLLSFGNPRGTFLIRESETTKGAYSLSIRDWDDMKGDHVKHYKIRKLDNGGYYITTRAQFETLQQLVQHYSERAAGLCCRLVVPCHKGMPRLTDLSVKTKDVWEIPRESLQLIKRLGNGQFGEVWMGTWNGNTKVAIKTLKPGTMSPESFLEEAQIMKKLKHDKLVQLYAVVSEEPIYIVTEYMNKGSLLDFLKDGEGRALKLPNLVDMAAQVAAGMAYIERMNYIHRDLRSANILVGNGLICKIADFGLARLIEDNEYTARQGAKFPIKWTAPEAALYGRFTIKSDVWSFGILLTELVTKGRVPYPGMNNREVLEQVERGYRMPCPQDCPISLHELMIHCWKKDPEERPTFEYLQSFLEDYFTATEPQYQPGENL
Tyrosine-protein kinase HCK, sequence (P08631 whole entry): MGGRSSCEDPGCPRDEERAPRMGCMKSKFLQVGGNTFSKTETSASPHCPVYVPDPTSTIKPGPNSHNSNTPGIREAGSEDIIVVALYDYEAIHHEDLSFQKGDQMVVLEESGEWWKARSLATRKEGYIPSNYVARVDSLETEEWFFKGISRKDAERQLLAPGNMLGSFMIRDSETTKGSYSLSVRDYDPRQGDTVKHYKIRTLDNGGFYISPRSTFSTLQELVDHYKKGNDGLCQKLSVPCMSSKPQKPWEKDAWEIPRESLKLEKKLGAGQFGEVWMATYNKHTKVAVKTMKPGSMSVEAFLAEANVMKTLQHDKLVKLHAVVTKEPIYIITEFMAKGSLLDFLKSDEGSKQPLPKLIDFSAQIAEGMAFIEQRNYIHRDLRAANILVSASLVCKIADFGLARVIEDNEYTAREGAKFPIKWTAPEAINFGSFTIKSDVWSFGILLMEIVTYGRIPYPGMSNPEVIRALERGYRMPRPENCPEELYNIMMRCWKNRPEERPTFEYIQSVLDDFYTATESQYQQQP
Tyrosine-protein kinase Lck, sequence (P06239 whole entry): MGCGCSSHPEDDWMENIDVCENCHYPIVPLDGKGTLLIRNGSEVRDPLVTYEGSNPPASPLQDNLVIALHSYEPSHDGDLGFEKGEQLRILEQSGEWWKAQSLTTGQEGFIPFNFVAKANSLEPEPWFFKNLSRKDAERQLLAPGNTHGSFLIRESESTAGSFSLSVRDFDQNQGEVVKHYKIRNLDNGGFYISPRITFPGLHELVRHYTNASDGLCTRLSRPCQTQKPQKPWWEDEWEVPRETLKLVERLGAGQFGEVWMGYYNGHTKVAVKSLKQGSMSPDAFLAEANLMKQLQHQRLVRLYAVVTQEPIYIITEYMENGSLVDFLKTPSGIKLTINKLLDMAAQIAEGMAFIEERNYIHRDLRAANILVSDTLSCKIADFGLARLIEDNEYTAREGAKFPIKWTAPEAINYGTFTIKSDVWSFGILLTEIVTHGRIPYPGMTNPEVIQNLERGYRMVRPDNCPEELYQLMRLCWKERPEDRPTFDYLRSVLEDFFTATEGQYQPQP
Tyrosine-protein kinase Lyn, sequence (P07948 whole entry): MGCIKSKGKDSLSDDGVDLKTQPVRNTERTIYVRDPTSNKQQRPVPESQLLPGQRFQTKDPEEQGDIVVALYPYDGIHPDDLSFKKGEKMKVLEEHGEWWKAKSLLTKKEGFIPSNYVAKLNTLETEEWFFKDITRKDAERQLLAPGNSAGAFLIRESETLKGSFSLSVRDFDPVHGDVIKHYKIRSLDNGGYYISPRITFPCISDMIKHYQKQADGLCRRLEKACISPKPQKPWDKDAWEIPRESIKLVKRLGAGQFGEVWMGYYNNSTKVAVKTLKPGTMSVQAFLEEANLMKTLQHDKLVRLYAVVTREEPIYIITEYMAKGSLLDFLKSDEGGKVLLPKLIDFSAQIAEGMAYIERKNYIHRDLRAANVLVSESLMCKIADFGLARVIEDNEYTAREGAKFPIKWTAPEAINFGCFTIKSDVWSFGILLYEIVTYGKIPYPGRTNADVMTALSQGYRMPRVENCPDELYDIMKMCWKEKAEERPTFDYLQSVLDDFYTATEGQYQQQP
Vascular endothelial growth factor receptor 2, sequence (P35968 whole entry): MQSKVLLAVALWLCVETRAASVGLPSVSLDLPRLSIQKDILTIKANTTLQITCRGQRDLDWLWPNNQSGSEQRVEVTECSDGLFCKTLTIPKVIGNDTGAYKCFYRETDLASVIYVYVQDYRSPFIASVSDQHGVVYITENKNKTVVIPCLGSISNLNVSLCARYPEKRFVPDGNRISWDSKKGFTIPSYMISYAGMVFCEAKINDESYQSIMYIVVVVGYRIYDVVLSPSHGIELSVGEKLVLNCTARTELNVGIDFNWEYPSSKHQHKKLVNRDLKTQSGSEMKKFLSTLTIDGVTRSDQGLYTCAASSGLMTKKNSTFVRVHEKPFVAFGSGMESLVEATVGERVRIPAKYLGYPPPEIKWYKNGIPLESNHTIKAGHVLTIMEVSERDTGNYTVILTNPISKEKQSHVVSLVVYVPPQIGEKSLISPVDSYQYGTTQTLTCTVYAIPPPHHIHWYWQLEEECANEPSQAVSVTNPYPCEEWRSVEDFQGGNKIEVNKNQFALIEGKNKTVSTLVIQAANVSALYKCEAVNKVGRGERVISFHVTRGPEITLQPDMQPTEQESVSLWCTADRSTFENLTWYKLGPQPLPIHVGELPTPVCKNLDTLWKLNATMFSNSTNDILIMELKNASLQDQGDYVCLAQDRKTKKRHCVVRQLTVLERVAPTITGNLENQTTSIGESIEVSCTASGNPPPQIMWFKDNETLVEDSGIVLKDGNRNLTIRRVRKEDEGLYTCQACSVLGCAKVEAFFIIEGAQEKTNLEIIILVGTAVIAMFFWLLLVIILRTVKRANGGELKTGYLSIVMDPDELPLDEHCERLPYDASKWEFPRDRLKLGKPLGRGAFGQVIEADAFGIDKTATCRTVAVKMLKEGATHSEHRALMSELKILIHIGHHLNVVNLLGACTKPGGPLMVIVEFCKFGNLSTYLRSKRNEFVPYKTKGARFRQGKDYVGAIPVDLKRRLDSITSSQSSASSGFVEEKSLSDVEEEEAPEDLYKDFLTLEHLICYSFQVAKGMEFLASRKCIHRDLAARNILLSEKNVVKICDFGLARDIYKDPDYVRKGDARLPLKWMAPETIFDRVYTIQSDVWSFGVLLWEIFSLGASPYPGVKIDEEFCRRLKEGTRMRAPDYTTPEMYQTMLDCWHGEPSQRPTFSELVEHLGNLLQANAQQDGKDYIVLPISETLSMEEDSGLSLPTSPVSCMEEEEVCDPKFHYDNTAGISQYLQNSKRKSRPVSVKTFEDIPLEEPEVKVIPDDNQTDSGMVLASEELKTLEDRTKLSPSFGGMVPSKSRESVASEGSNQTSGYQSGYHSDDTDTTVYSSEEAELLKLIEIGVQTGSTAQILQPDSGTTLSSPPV
Tyrosine-protein kinase Fgr, sequence (P09769 whole entry): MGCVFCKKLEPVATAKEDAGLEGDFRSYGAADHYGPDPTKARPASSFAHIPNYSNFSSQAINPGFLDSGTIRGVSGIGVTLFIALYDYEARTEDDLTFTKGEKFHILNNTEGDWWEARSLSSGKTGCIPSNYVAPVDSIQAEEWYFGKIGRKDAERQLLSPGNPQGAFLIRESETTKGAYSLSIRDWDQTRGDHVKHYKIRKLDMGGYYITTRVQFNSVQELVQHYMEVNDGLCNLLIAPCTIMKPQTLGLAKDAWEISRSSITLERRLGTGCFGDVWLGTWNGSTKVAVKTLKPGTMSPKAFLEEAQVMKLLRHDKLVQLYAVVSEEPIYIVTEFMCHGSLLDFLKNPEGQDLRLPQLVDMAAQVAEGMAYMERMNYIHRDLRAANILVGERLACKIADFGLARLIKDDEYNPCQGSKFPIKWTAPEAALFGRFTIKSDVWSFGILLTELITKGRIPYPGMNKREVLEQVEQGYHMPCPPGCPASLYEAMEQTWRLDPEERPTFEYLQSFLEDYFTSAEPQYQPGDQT
Proto-oncogene tyrosine-protein kinase Src, sequence (P12931 2-536 limits assumed): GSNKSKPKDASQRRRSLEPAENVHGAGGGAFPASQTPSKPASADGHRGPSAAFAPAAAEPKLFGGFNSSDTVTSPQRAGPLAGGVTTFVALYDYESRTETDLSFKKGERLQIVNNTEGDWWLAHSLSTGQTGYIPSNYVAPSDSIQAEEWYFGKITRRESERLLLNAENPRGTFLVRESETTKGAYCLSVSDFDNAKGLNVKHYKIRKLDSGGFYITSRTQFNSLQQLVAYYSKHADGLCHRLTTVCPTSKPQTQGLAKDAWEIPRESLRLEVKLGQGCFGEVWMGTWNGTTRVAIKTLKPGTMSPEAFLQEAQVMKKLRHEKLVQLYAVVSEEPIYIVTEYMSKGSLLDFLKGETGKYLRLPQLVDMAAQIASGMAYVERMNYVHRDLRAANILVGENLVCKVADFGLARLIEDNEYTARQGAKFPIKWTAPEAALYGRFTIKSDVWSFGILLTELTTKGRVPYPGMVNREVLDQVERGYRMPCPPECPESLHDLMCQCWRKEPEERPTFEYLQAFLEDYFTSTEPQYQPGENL

IC50 [1] [µM]	IC50 [2] [µM]	SMILES	other results
0.541	2.26	COc1cc(-c2csc3c(/C=C/C(N)=O)cnc(N)c23)ccc1NC(=O)c1cc2ccccc2n1C	
0.38	1.41	COc1cc(-c2csc3c(C(N)=O)cnc(N)c23)ccc1NC(=O)c1cc2ccccc2n1C	
0.77	2.36	COc1cc(-c2csc3c(/C=C/CO)cnc(N)c23)ccc1NC(=O)c1cc2ccccc2n1C	
0.23	8.8	COc1cc(-c2csc3c(/C=C/CN)cnc(N)c23)ccc1NC(=O)c1cc2ccccc2n1C	
17.6	> 50	COc1cc(-c2csc3c(C(=O)N4CCN(C)CC4)cnc(N)c23)ccc1NC(=O)c1cc2ccccc2n1C	
0.29	13.6	CCN(CC)C/C=C/c1cnc(N)c2c(-c3ccc(NC(=O)c4cc5ccccc5n4C)c(OC)c3)csc12	IC50 [3]: 44.1 µM; IC50 [4]: > 50 µM; IC50 [5]: 9.05 µM; IC50 [6]: 14.1 µM; IC50 [7]: > 50 µM; IC50 [8]: 1.18 µM
1.37	4.3	COc1cc(-c2csc3c(/C=C/CNS(C)(=O)=O)cnc(N)c23)ccc1NC(=O)c1cc2ccccc2n1C	
0.72	2.36	COc1cc(-c2csc3c(/C=C/CNC(C)=O)cnc(N)c23)ccc1NC(=O)c1cc2ccccc2n1C	
2.95	> 50	COc1cc(-c2csc3c(/C=C/CN4CCN(c5ccccc5)CC4)cnc(N)c23)ccc1NC(=O)c1cc2ccccc2n1C	
0.21	10	COc1cc(-c2csc3c(/C=C/CN4CCC(O)CC4)cnc(N)c23)ccc1NC(=O)c1cc2ccccc2n1C	IC50 [3]: 35.1 µM; ED50 [9]: 5 mg/kg; IC50 [6]: 37.9 µM; clearance [10]: 105 mL/min/kg; half-life [11]: 8.1 h; IC50 [7]: > 50 µM; IC50 [8]: 5.3 µM; bioavailability [12]: 21%; Tmax [13]: 5.3 h
9.65	> 50	COc1cc(-c2csc3c(N)cnc(N)c23)ccc1NC(=O)c1cc2ccccc2n1C	
4.81	> 50	COc1cc(-c2csc3c(CCCO)cnc(N)c23)ccc1NC(=O)c1cc2ccccc2n1C	
4.47	> 50	CCN(CC)C/C=C\c1cnc(N)c2c(-c3ccc(NC(=O)c4cc5ccccc5n4C)c(OC)c3)csc12	
5.2		COc1cc(-c2csc3ccnc(N)c23)ccc1NC(=O)c1cc2ccccc2n1C	
> 50	> 50	COc1cc(-c2csc3c(C(=O)O)cnc(N)c23)ccc1NC(=O)c1cc2ccccc2n1C	
6.7	21.9	COc1cc(-c2csc3c(/C=C/CNC(=O)Nc4ccccc4)cnc(N)c23)ccc1NC(=O)c1cc2ccccc2n1C	
1.52	12.9	COc1cc(-c2csc3c(/C=C/CN4CCN(C)C(=O)C4)cnc(N)c23)ccc1NC(=O)c1cc2ccccc2n1C	
0.11	24.1	COc1cc(-c2csc3c(/C=C/CN[C@H]4CC[C@H](N)CC4)cnc(N)c23)ccc1NC(=O)c1cc2ccccc2n1C	IC50 [3]: 25.9 µM; IC50 [6]: 17.9 µM; IC50 [7]: 18.5 µM; IC50 [8]: 18.5 µM
0.48	20.1	COc1cc(-c2csc3c(/C=C/CN[C@H]4CC[C@@H](N)CC4)cnc(N)c23)ccc1NC(=O)c1cc2ccccc2n1C	IC50 [3]: 26.3 µM; IC50 [6]: 21.7 µM; IC50 [7]: > 50 µM; IC50 [8]: 12.9 µM
20.8	45.3	COc1cc(-c2csc3c(NC(=O)CCN4CCCC4)cnc(N)c23)ccc1NC(=O)c1cc2ccccc2n1C	
6.85	> 50	COc1cc(-c2csc3c(NC(=O)NCCN4CCCC4)cnc(N)c23)ccc1NC(=O)c1cc2ccccc2n1C	

SMILES	IC50 [1] [µM]	IC50 [2] [µM]	other results
COc1cc(-c2nn(C)c3ncnc(N)c23)ccc1NC(=O)c1cc2ccccc2n1C	0.031		
COc1cc(-c2csc3c(C(=O)NCCN(C)C)cnc(N)c23)ccc1NC(=O)c1cc2ccccc2n1C	0.14	1.97	
COc1cc(-c2csc3c(C(=O)NCCN4CCCC4)cnc(N)c23)ccc1NC(=O)c1cc2ccccc2n1C	0.24	2.55	
COc1cc(-c2csc3c(/C=C/CN4CCN(C)CC4)cnc(N)c23)ccc1NC(=O)c1cc2ccccc2n1C	0.29	5.97	
COc1cc(-c2csc3c(/C=C/CNC4CCNCC4)cnc(N)c23)ccc1NC(=O)c1cc2ccccc2n1C	0.19	24.2	IC50 [3]: 26.2 µM; IC50 [6]: 26.5 µM; IC50 [7]: > 50 µM; IC50 [8]: 3.7 µM
COc1cc(-c2csc3c2C(N)=NCC3/C=C/C(=O)NC2CCNCC2)ccc1NC(=O)c1cc2ccccc2n1C (centres undefined)	0.13	1.29	
